The numbers were not newly measured in patent US8529939B2, “Mucoadhesive drug delivery devices and methods of making and using thereof” (Gel-Del Technologies, Inc., priority 2003, dated 2013), which cites them from elsewhere.

Molecules are shown by their SMILES.

[1] abbreviates: contact time 30 s, previous study.

`OC[C@@H](O)[C@@H](O)[C@H](O)[C@H](O)CO` [Mannitol, mannitol]: under setting [1], the tensile stress is recorded as 0.017 N/cm^2 and the tensile work was 0.015 mJ/cm^2. Also, under “powders, control reference”, the “bioadhesive properties (in words)” value is listed as “no bioadhesive properties”.
